Test results from ChEMBL document CHEMBL1128431, “Specific sequestering agents for the actinides. 28. Synthesis and initial evaluation of multidentate 4-carbamoyl-3-hydroxyl-1-methyl-2(1H)-pyridinone ligands for in vivo plutonium(IV) chelation” (1995).

Key:
[1] = system: Mus musculus; assay: % Pu(IV) retained after 24 hr in whole body of mice under the effect of 30uM/kg(po, gastric intubation) of ligand administered 3 min after iv injection of Pu(IV) citrate; type: functional
[2] = system: Mus musculus; assay: %Pu(IV) excreted after 24 hr in GI contents and feces under the effect of 30uM/kg(po, gastric intubation) of ligand administered 3 min after iv injection of Pu(IV) citrate; type: functional
[3] = system: Mus musculus; assay: Percent of Pu(IV) excreted after 24 hours in GI contents and feces under the effect of 30 umol/kg (i.p.) of ligand administered 1 hr after iv injection of Pu(IV) citrate; type: functional
[4] = system: Mus musculus; assay: Percent of Pu(IV) excreted after 24 hours in urine under the effect of 30 umol/kg (i.p.) of ligand administered 1 hr after iv injection of Pu(IV) citrate; type: functional
[5] = system: Mus musculus; assay: Percent of Pu(IV) retained after 24 hours in kidneys of mice under the effect of 30 umol/kg (i.p.) of ligand administered 1 hr after iv injection of Pu(IV) citrate; type: functional, Kidney
[6] = system: Mus musculus; assay: Percent of Pu(IV) retained after 24 hours in liver of mice under the effect of 30 umol/kg (i.p.) of ligand administered 1 hr after iv injection of Pu(IV) citrate; type: functional
[7] = system: Mus musculus; assay: Percent of Pu(IV) retained after 24 hours in skeleton of mice under the effect of 30 umol/kg (i.p.) of ligand administered 1 hr after iv injection of Pu(IV) citrate; type: functional
[8] = system: Mus musculus; assay: Percent of Pu(IV) retained after 24 hours in soft tissue of mice under the effect of 30 umol/kg (i.p.) of ligand administered 1 hr after iv injection of Pu(IV) citrate; type: functional
[9] = system: Mus musculus; assay: Percent of Pu(IV) retained after 24 hours in whole body of mice under the effect of 30 umol/kg (i.p.) of ligand administered 1 hr after iv injection of Pu(IV) citrate; type: functional
[10] = system: Mus musculus; assay: % Pu(IV) retained after 24 hours in liver of mice under the effect of 30uM/kg(po, gastric intubation) of ligand administered 3 min after iv injection of Pu(IV) citrate; type: functional
[11] = system: Mus musculus; assay: % Pu(IV) excreted at 0-4 hr in urine under the effect of 30uM/kg(po, gastric intubation) of ligand administered 3 min after iv injection of Pu(IV) citrate; type: functional
[12] = system: Mus musculus; assay: % Pu(IV) retained after 24 hours in kidneys of mice under the effect of 30uM/kg(po, gastric intubation) of ligand administered 3 min after iv injection of Pu(IV) citrate; type: functional, Kidney
[13] = system: Mus musculus; assay: % Pu(IV) retained after 24 hours in skeleton of mice under the effect of 30uM/kg(po, gastric intubation) of ligand administered 3 min after iv injection of Pu(IV) citrate; type: functional
[14] = system: Mus musculus; assay: % Pu(IV) retained after 24 hours in soft tissue of mice under the effect of 30uM/kg(po, gastric intubation) of ligand administered 3 min after iv injection of Pu(IV) citrate; type: functional
[15] = system: Mus musculus; assay: % Pu(IV) excreted at 4-24 hr in urine under the effect of 30uM/kg(po, gastric intubation) of ligand administered 3 min after iv injection of Pu(IV) citrate

Compound: Cn1ccc(C(=O)NCCCN(CCCNC(=O)c2ccn(C)c(=O)c2O)CCCNC(=O)c2ccn(C)c(=O)c2O)c(O)c1=O
- ID [1]: 60%
- ID [2]: 36%
- ID [3]: 12%
- ID [4]: 55%
- ID [5]: 0.7%
- ID [6]: 17%
- ID [7]: 14%
- ID [8]: 2%
- ID [9]: 33%
- ID [10]: 28%
- ID [11]: 1.8%
- ID [12]: 0.7%
- ID [13]: 28%
- ID [14]: 4.3%
- ID [15]: 3.6%

Compound: Cn1ccc(C(=O)NCCCNC(=O)c2ccn(C)c(=O)c2O)c(O)c1=O
- ID [1]: 66%
- ID [2]: 7.9%
- ID [3]: 41%
- ID [4]: 32%
- ID [5]: 0.5%
- ID [6]: 9.5%
- ID [7]: 14%
- ID [8]: 2.6%
- ID [9]: 27%
- ID [10]: 33%
- ID [11]: 16%
- ID [12]: 0.8%
- ID [13]: 27%
- ID [14]: 5%
- ID [15]: 11%

Compound: Cn1ccc(C(=O)NCCCCCCNC(=O)c2ccn(C)c(=O)c2O)c(O)c1=O
- ID [1]: 76%
- ID [2]: 9.8%
- ID [3]: 63%
- ID [4]: 14%
- ID [5]: 0.5%
- ID [6]: 6.5%
- ID [7]: 12%
- ID [8]: 3.7%
- ID [9]: 23%
- ID [10]: 44%
- ID [11]: 7.3%
- ID [12]: 0.6%
- ID [13]: 25%
- ID [14]: 6.2%
- ID [15]: 6.9%

Compound: CC(=O)N(O)CCCCCNC(=O)CCC(=O)N(O)CCCCCNC(=O)CCC(=O)N(O)CCCCCNC(=O)c1ccn(C)c(=O)c1O
- ID [1]: 60%
- ID [2]: 17%
- ID [3]: 26%
- ID [4]: 21%
- ID [5]: 3%
- ID [6]: 13%
- ID [7]: 17%
- ID [8]: 19%
- ID [9]: 53%
- ID [10]: 22%
- ID [11]: 2.4%
- ID [12]: 2.4%
- ID [13]: 20%
- ID [14]: 15%
- ID [15]: 20%

Compound: Cn1ccc(C(=O)NCCN(CCCCN(CCNC(=O)c2ccn(C)c(=O)c2O)CCNC(=O)c2ccn(C)c(=O)c2O)CCNC(=O)c2ccn(C)c(=O)c2O)c(O)c1=O
- ID [1]: 32%
- ID [2]: 8.6%
- ID [3]: 25%
- ID [4]: 47%
- ID [5]: 1.8%
- ID [6]: 14%
- ID [7]: 11%
- ID [8]: 2.1%
- ID [9]: 29%
- ID [10]: 17%
- ID [11]: 20%
- ID [12]: 1.3%
- ID [13]: 13%
- ID [14]: 1.8%
- ID [15]: 39%

Compound: Cn1ccc(C(=O)NCCN(CCCN(CCNC(=O)c2ccn(C)c(=O)c2O)CCNC(=O)c2ccn(C)c(=O)c2O)CCNC(=O)c2ccn(C)c(=O)c2O)c(O)c1=O
- ID [1]: 30%
- ID [2]: 22%
- ID [3]: 41%
- ID [4]: 34%
- ID [5]: 1.6%
- ID [6]: 10%
- ID [7]: 9.9%
- ID [8]: 2.7%
- ID [9]: 24%
- ID [10]: 13%
- ID [11]: 16%
- ID [12]: 1.2%
- ID [13]: 13%
- ID [14]: 3.1%
- ID [15]: 33%

Compound: O=C(NCc1cc(CNC(=O)c2cccc(=O)n2O)cc(CNC(=O)c2cccc(=O)n2O)c1)c1cccc(=O)n1O
- ID [3]: 43%
- ID [4]: 9.6%
- ID [5]: 1.8%
- ID [6]: 18%
- ID [7]: 17%
- ID [8]: 10%
- ID [9]: 47%

Compound: O=C(NCCCN(CCCCN(CCCNC(=O)c1cccc(=O)n1O)C(=O)c1cccc(=O)n1O)C(=O)c1cccc(=O)n1O)c1cccc(=O)n1O
- ID [1]: 24%
- ID [2]: 51%
- ID [3]: 57%
- ID [4]: 25%
- ID [5]: 0.2%
- ID [6]: 8.9%
- ID [7]: 7.5%
- ID [8]: 1.6%
- ID [9]: 18%
- ID [10]: 11%
- ID [11]: 23%
- ID [12]: 0.1%
- ID [13]: 12%
- ID [14]: 13%
- ID [15]: 2.7%

Compound: Cn1ccc(C(=O)NCCCCCNC(=O)c2ccn(C)c(=O)c2O)c(O)c1=O
- ID [1]: 54%
- ID [2]: 22%
- ID [3]: 67%
- ID [4]: 18%
- ID [5]: 0.3%
- ID [6]: 3.1%
- ID [7]: 10%
- ID [8]: 1.9%
- ID [9]: 16%
- ID [10]: 25%
- ID [11]: 10%
- ID [12]: 0.8%
- ID [13]: 24%
- ID [14]: 3.2%
- ID [15]: 13%

Compound: Cn1ccc(C(=O)NCCCCNC(=O)c2ccn(C)c(=O)c2O)c(O)c1=O
- ID [1]: 55%
- ID [2]: 11%
- ID [3]: 63%
- ID [4]: 19%
- ID [5]: 0.4%
- ID [6]: 3.7%
- ID [7]: 11%
- ID [8]: 1.9%
- ID [9]: 17%
- ID [10]: 34%
- ID [11]: 26%
- ID [12]: 0.5%
- ID [13]: 17%
- ID [14]: 3.2%
- ID [15]: 8.8%

Compound: Cn1ccc(C(=O)NCCN(CCNC(=O)c2ccn(C)c(=O)c2O)CCN(CCNC(=O)c2ccn(C)c(=O)c2O)CCNC(=O)c2ccn(C)c(=O)c2O)c(O)c1=O
- ID [1]: 23%
- ID [2]: 38%
- ID [3]: 45%
- ID [4]: 36%
- ID [5]: 1.3%
- ID [6]: 3.8%
- ID [7]: 11%
- ID [8]: 2.8%
- ID [9]: 19%
- ID [10]: 7.6%
- ID [11]: 12%
- ID [12]: 0.4%
- ID [13]: 11%
- ID [14]: 4%
- ID [15]: 27%

Compound: Cn1ccc(C(=O)NCCOCCNC(=O)c2ccn(C)c(=O)c2O)c(O)c1=O
- ID [1]: 34%
- ID [2]: 46%
- ID [3]: 56%
- ID [4]: 28%
- ID [5]: 0.3%
- ID [6]: 2.7%
- ID [7]: 11%
- ID [8]: 1.7%
- ID [9]: 16%
- ID [10]: 11%
- ID [11]: 14%
- ID [12]: 0.8%
- ID [13]: 18%
- ID [14]: 2.9%
- ID [15]: 7.8%

Compound: Cn1ccc(C(=O)NCc2cc(CNC(=O)c3ccn(C)c(=O)c3O)cc(CNC(=O)c3ccn(C)c(=O)c3O)c2)c(O)c1=O
- ID [1]: 82%
- ID [2]: 5.2%
- ID [3]: 70%
- ID [4]: 8%
- ID [5]: 0.9%
- ID [6]: 6.1%
- ID [7]: 12%
- ID [8]: 3%
- ID [9]: 22%
- ID [10]: 40%
- ID [11]: 6.4%
- ID [12]: 1.2%
- ID [13]: 34%
- ID [14]: 7.5%
- ID [15]: 6%

Compound: Cn1ccc(C(=O)NCCN(CCNC(=O)c2ccn(C)c(=O)c2O)CCNC(=O)c2ccn(C)c(=O)c2O)c(O)c1=O
- ID [1]: 25%
- ID [2]: 34%
- ID [3]: 45%
- ID [4]: 35%
- ID [5]: 0.7%
- ID [6]: 5.5%
- ID [7]: 11%
- ID [8]: 2.7%
- ID [9]: 20%
- ID [10]: 8.5%
- ID [11]: 21%
- ID [12]: 0.7%
- ID [13]: 13%
- ID [14]: 1.9%
- ID [15]: 21%
